In patent US20230330093A1, “APPLICATION OF NITROGEN-CONTAINING SATURATED HETEROCYCLIC COMPOUND” (SHANGHAI PHARMACEUTICALS HOLDING CO., LTD., priority 2020, published 2023):
“And” between values parts separate entries of the source, which are not always exact repeats. Equal entries are not always repeated.

Columns and labels:
[1] = tested on: rhesus monkeys with spontaneous chronic kidney disease; assay: Effect on plasma creatinine Cr-P, 8-week administration; type: in vivo, Macaca mulatta (Rhesus Macaque); settings: Valsartan group (n = 3)
Protocol: In the trial, animals were brought in three stages. […] Glomerular filtration rate […]: creatinine (Cr-P), urea nitrogen (BUN) and cystatin (CysC) were detected, and the eGFR value was obtained by calculation. It was performed once before the administration and once every two weeks after the administration. […] ELISA kit was used for NT-proBNP test. [table]

[2] = tested on: rhesus monkeys with spontaneous chronic kidney disease; assay: Effect on blood pressure (SBP, DBP, MBP, HR) after anesthesia, 8-week administration; type: in vivo, Macaca mulatta (Rhesus Macaque); settings: for DBP / SBP: Valsartan group (n = 3)
Excerpt: (§1) In the trial, animals were brought in three stages.
Route of administration: Oral administration.
After anesthesia, the animal was placed in a supine position. The left upper arm was shaved clean, and a suitable size cuff was tied according to the standard. The blood oxygen probe was clamped on the animal's finger or toe (except for the left hand), and the red light-sensitive surface was on the side of the finger pad. The blood pressure of the animal was continuously measured for 3 times in the automatic mode with an interval of 1 min. If the difference of DBP, SBP and MBP of blood pressure measured more than three times was not significant (the difference between the highest value and the lowest value was less than 15 mmHg), the measurement was completed.
Testing equipment: GE B40i electrophysiological monitor.
See Table 16 for the effects of administration of each administration group on blood pressure. The blood pressure test of primates required anesthesia, so it was necessary to control the variability of heart rate at various time points to make statistics.

[3] = tested on: rhesus monkeys with spontaneous chronic kidney disease; assay: Effect on heart function, cardiac Doppler ultrasound, 8-week administration; settings: for Ea / LVEF: Valsartan group (n = 3)
Protocol: as §1
This was performed once before administration and once after administration. UACR=MALB/Cr—U. • Blood pressure: the blood pressure was checked after anesthesia, including systolic blood pressure (SBP), diastolic blood pressure (DBP), mean blood pressure (MBP) and heart rate (HR). This was performed once before administration and once at weeks 4 and 8 respectively after administration. • Cardiac GE Doppler ultrasound: historical cardiac ultrasonography once within 1 year (selected animals), once before administration (within 30 days (D-30) of the baseline period), and once at week 8 after administration.
Anesthesia method: 15 mg/kg of ketamine hydrochloride was used for intramuscular injection anesthesia. According to the animal anesthesia state, the supplemental anesthesia will be performed after judgment by veterinarian. Each supplemental anesthesia dose was ½ of the initial dose.
Detection method: The animal was placed in the left decubitus position, and the 6S-RS probe (frequency 2.7-8.0 MHz) was used for image acquisition.
Analysis method: After the image was collected and saved, the supporting analysis workstation EchoPAC Software was used to repeatedly detect various indicators of systolic and diastolic functions in 3 consecutive cardiac cycles.
Testing indicators and ultrasonic technology: see Table 9 below.
Testing equipment: GE Vivid S5 color Doppler ultrasound diagnostic system.

[4] = Baseline, single animals and Mean ± SD
[5] = Baseline, single animals and Mean ± SD, mean
[6] = Valsartan group (n=3), after W8 administration, p<0.01 vs placebo

CCCCC(=O)N(Cc1ccc(-c2ccccc2-c2nnn[nH]2)cc1)[C@H](C(=O)O)C(C)C [Valsartan, reference compound]
Cr-P ([1]; 2 weeks): 1.12 mg/dL and 1.22 mg/dL
Cr-P ([1]; 2 weeks, mean): 1.15 ± 0.06 mg/dL
Cr-P ([1]; 4 weeks): 1.12 mg/dL and 1.08 mg/dL and 1.26 mg/dL
Cr-P ([1]; 4 weeks, mean): 1.15 ± 0.09 mg/dL
Cr-P ([1]; 6 weeks): 1.11 mg/dL and 1.26 mg/dL
Cr-P ([1]; 6 weeks, mean): 1.16 ± 0.09 mg/dL
Cr-P ([1]; 8 weeks): 1.09 mg/dL and 1.03 mg/dL and 1.26 mg/dL
Cr-P ([1]; 8 weeks, mean): 1.13 ± 0.12 mg/dL
Cr-P [1, 4]: 1.28 mg/dL and 1.31 mg/dL and 1.50 mg/dL
Cr-P [1, 5]: 1.36 ± 0.12 mg/dL
DBP ([2]; 4 weeks): 62 mmHg and 53 mmHg
SBP ([2]; 4 weeks): 130 mmHg and 106 mmHg and 138 mmHg
DBP ([2]; 4 weeks, mean): 59 ± 5 mmHg
SBP ([2]; 4 weeks, mean): 125 ± 17 mmHg
DBP ([2]; 8 weeks): 61 mmHg and 53 mmHg and 75 mmHg
SBP ([2]; 8 weeks): 121 mmHg and 107 mmHg and 133 mmHg
DBP ([2]; 8 weeks, mean): 63 ± 11 mmHg
SBP ([2]; 8 weeks, mean): 120 ± 13 mmHg
DBP ([2]; Baseline): 67 mmHg and 60 mmHg and 82 mmHg
DBP ([2]; Baseline, mean): 70 ± 11 mmHg
SBP [2, 4]: 131 mmHg and 125 mmHg and 148 mmHg
SBP [2, 5]: 135 ± 12 mmHg
DBP decreased by on average, compared with the baseline [2, 6]: 7±0 mmHg
SBP decreased by on average, compared with the baseline [2, 6]: 14±4 mmHg
Ea ([3]; 8 weeks): 7.01 cm/s and 7.17 cm/s and 4.61 cm/s
LVEF ([3]; 8 weeks): 64.09% and 57.98% and 61.97%
Ea ([3]; Baseline): 4.16 cm/s and 5.14 cm/s and 3.44 cm/s
LVEF [3, 4]: 64.02% and 58.75% and 59.26%
adverse reaction in the systolic and diastolic function (echocardiography) ([3]; each dose group, 8-week administration): no obvious adverse reaction
